Data taken from patent US20240409557A1, “5,6-FUSED AND 6,6-FUSED BICYCLIC ALCOHOLS AND ETHERS AND COMPOSITIONS FOR USE AS 15-PROSTAGLANDIN DEHYDROGENASE MODULATORS” (AMGEN INC., priority 2023, published 2024).

How the values were obtained:
[1] = molecular target: T1, human recombinant 15-PGDH (Homo sapiens, UniProt P15428); assay: Recombinant 15-PGDH enzymatic inhibition assay (PGDH-Lumi, NADH signal); type: biochemical; settings: recombinant 15-PGDH; 15 min pre-incubation, 60 min reaction with PGE2 and NAD+, NADH signal
T1 sequence (P15428 1-266): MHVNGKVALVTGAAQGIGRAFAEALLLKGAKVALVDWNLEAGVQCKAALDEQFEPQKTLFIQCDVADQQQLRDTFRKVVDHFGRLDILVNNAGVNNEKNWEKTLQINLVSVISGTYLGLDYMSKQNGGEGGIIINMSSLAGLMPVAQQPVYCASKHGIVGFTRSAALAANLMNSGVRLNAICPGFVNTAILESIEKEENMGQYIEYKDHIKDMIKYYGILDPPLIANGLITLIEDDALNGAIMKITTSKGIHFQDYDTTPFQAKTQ
Outline: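 Buffer 50 mM Tris pH 7.5 with 0.01% Tween-20 and […]; compound, 22 two-fold dilutions, pre-incubated with enzyme 15 min before substrate.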

15-PGDH in A549 cells = molecular target: T2, 15-PGDH in A549 cells (Homo sapiens, UniProt P15428); assay: A549 cellular 15-PGDH assay (PGE2 accumulation, HTRF); type: cell-based; settings: interleukin-stimulated, inhibitor 24 hrs, PGE2 by competitive HTRF, read-out: A549 Cell Assay IC50
T2 construct: endogenous in cells; host or cells: A549
T2 sequence (P15428 1-266): T1 sequence (P15428 1-266)
Outline: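 Supernatant PGE2 was quantified by competitive HTRF, in which sample PGE2 blocks FRET between a europium cryptate-labelled antibody and labelled PGE2. It came from A549 epithelial cells induced with IL-13. IC50s were calculated from the inversely proportional signal.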

Row | SMILES | IC50 [1] [nM] | IC50 (15-PGDH in A549 cells) [nM]
1 | CO[C@H]1C[C@@H]([C@H](O)c2cc3ccc(-c4cnc5nn(C)cc5c4)nc3s2)C1 (single isomer, unassigned) [Compound B88SC] | 10.1 | 0.522
2 | CO[C@H]1C[C@H]([C@H](O)c2cc3ccc(-c4cnc5nn(C)cc5c4)nc3s2)C1 (single isomer, unassigned) [Compound B88ST] | 1.12 | 0.504
3 | Cc1c([C@H](O)C2CCOCC2)sc2nc(-c3cnc4c(c3)nnn4C)ccc12 (single isomer, unassigned) [Compound B89R] | 1.77 | 4.82
4 | Cc1c([C@@H](O)C2CCOCC2)sc2nc(-c3cnc4c(c3)nnn4C)ccc12 (single isomer, unassigned) [Compound B89S] | 922 | 375
5 | Cc1c([C@H](O)C2CCOCC2)sc2nc(-c3cnc4nn(C)cc4c3)ccc12 (single isomer, unassigned) [Compound B90R] | 0.952 | 0.857
6 | Cc1c([C@@H](O)C2CCOCC2)sc2nc(-c3cnc4nn(C)cc4c3)ccc12 (single isomer, unassigned) [Compound B90S] | 488 | 237
7 | Cn1cc2cc(-c3ccc4cc([C@H](O)C56CC(C(F)(F)F)(C5)C6)sc4n3)cnc2n1 (single isomer, unassigned) [Compound B91R] | 0.544 | 1.09
8 | Cn1cc2cc(-c3ccc4cc([C@@H](O)C56CC(C(F)(F)F)(C5)C6)sc4n3)cnc2n1 (single isomer, unassigned) [Compound B91S] | 34.9 | 2.37
9 | Cc1c([C@@H](CO)C2CC(F)(F)C2)sc2nc(-c3cnc4nn(C)cc4c3)ccc12 (single isomer, unassigned) [Compound B93R] | 174 | 245
10 | Cc1c([C@H](CO)C2CC(F)(F)C2)sc2nc(-c3cnc4nn(C)cc4c3)ccc12 (single isomer, unassigned) [Compound B93S] | 2.64 | 14.2
11 | Cn1cc2cc(-c3ccc4cc([C@H](O)[C@H]5CCC5(F)F)sc4n3)cnc2n1 (single isomer, unassigned) [Compound B94RR] | 0.34 | 0.661
12 | Cn1cc2cc(-c3ccc4cc([C@H](O)[C@@H]5CCC5(F)F)sc4n3)cnc2n1 (single isomer, unassigned) [Compound B94RS] | 0.325 | 0.657
13 | Cn1cc2cc(-c3ccc4cc([C@@H](O)[C@H]5CCC5(F)F)sc4n3)cnc2n1 (single isomer, unassigned) [Compound B94SR] | 0.64 | 2.64
14 | Cn1cc2cc(-c3ccc4cc([C@@H](O)[C@@H]5CCC5(F)F)sc4n3)cnc2n1 (single isomer, unassigned) [Compound B94SS] | 1.23 | 3.63
15 | Cn1cc2cc(-c3ccc4c(N)c([C@H](O)C5CC(F)(F)C5)sc4n3)cnc2n1 (single isomer, unassigned) [Compound B95R] | 1.21 | 1.64
16 | Cn1cc2cc(-c3ccc4c(N)c([C@@H](O)C5CC(F)(F)C5)sc4n3)cnc2n1 (single isomer, unassigned) [Compound B95S] | 6.43 | 9.46
17 | Cn1cc2cc(-c3ccc4cc([C@]5(O)C[C@]6(CCO6)C5)sc4n3)cnc2n1 (single isomer, unassigned) [Compound C56C, cis-6-(6-(2-methyl-2H-pyrazolo[3,4-b]pyridin-5-yl)thieno[2,3-b]pyridin-2-yl)-1-oxaspiro[3.3]heptan-6-ol] | 0.423 | 0.18
18 | Cn1cc2cc(-c3ccc4cc([C@]5(O)C[C@@]6(CCO6)C5)sc4n3)cnc2n1 (single isomer, unassigned) [Compound C56T, trans-6-(6-(2-methyl-2H-pyrazolo[3,4-b]pyridin-5-yl)thieno[2,3-b]pyridin-2-yl)-1-oxaspiro[3.3]heptan-6-ol] | 1.18 | 0.997

Row | SMILES | IC50 [1] [nM] | IC50 (15-PGDH in A549 cells) [nM]
19 | COC[C@H]1C[C@](O)(c2cc3ccc(-c4cnc5nn(C)cc5c4)nc3s2)C1 (single isomer, unassigned) [Compound C58C, cis-3-(methoxymethyl)-1-(6-(2-methyl-2H-pyrazolo[3,4-b]pyridin-5-yl)thieno[2,3-b]pyridin-2-yl)cyclobutanol] | 0.889 | 0.519
20 | CO[C@]1(C)C[C@](O)(c2cc3ccc(-c4cnc5nn(C)cc5c4)nc3s2)C1 (single isomer, unassigned) [Compound C59T, trans-3-methoxy-3-methyl-1-(6-(2-methyl-2H-pyrazolo[3,4-b]pyridin-5-yl)thieno[2,3-b]pyridin-2-yl)cyclobutanol] | 0.727 | 0.16
21 | Cn1cc2cc(-c3ccc4cc([C@]5(O)C[C@@H](C6CC6)C5)sc4n3)cnc2n1 (single isomer, unassigned) [Compound C62C, cis-3-cyclopropyl-1-(6-(2-methyl-2H-pyrazolo[3,4-b]pyridin-5-yl)thieno[2,3-b]pyridin-2-yl)cyclobutanol] | 0.366 | 0.0321
22 | C[C@H]1CC[C@]1(O)c1cc2ccc(-c3cnc4nn(C)cc4c3)nc2s1 (single isomer, unassigned) [Compound C64RS] | 20.9 | 3.25
23 | Cn1cc2cc(-c3ccc4cc([C@@]5(O)CCC5(C)C)sc4n3)cnc2n1 (single isomer, unassigned) [Compound C65R] | 32.6 | 3.45
24 | CO[C@]1(C(F)(F)F)C[C@@](O)(c2cc3ccc(-c4cnc5nn(C)cc5c4)nc3s2)C1 (single isomer, unassigned) [Compound C66C, cis-3-methoxy-1-(6-(2-methyl-2H-pyrazolo[3,4-b]pyridin-5-yl)thieno[2,3-b]pyridin-2-yl)-3-(trifluoromethyl)cyclobutanol] | 0.852 | 0.206
25 | CO[C@]1(C(F)(F)F)C[C@](O)(c2cc3ccc(-c4cnc5nn(C)cc5c4)nc3s2)C1 (single isomer, unassigned) [Compound C66T, trans-3-methoxy-1-(6-(2-methyl-2H-pyrazolo[3,4-b]pyridin-5-yl)thieno[2,3-b]pyridin-2-yl)-3-(trifluoromethyl)cyclobutanol] | 0.47 | 0.0223
26 | CO[C@@H]1CC[C@]1(O)c1cc2ccc(-c3cnc4nn(C)cc4c3)nc2s1 (single isomer, unassigned) [Compound C70RR] | 403 | 117
27 | CO[C@H]1CC[C@]1(O)c1cc2ccc(-c3cnc4nn(C)cc4c3)nc2s1 (single isomer, unassigned) [Compound C70RS] | 3860 | > 750
28 | CO[C@@H]1CC[C@@]1(O)c1cc2ccc(-c3cnc4nn(C)cc4c3)nc2s1 (single isomer, unassigned) [Compound C70SR] | 2260 | 172
29 | CO[C@H]1CC[C@@]1(O)c1cc2ccc(-c3cnc4nn(C)cc4c3)nc2s1 (single isomer, unassigned) [Compound C70SS] | 2280 | 316
30 | Cn1cc2cc(-c3ccc4cc([C@]5(O)C[C@]6(CC6(F)F)C5)sc4n3)cnc2n1 (single isomer, unassigned) [Compound C88C, cis-1,1-difluoro-5-(6-(2-methyl-2H-pyrazolo[3,4-b]pyridin-5-yl)thieno[2,3-b]pyridin-2-yl)spiro[2.3]hexan-5-ol] | 0.503 | 0.455
31 | Cn1cc2cc(-c3ccc4cc([C@]5(O)C[C@@]6(CC6(F)F)C5)sc4n3)cnc2n1 (single isomer, unassigned) [Compound C88T, trans-1,1-difluoro-5-(6-(2-methyl-2H-pyrazolo[3,4-b]pyridin-5-yl)thieno[2,3-b]pyridin-2-yl)spiro[2.3]hexan-5-ol] | 0.347 | 0.589
32 | Cn1cc2cc(-c3ccc4nc([C@]5(O)C[C@@](C)(C#N)C5)sc4n3)cnc2n1 (single isomer, unassigned) [Compound C91C, cis-3-hydroxy-1-methyl-3-(5-(2-methyl-2H-pyrazolo[3,4-b]pyridin-5-yl)[1,3]thiazolo[5,4-b]pyridin-2-yl)cyclobutanecarbonitrile] | 0.799 | 2.22
33 | Cn1cc2cc(-c3ccc4nc([C@]5(O)C[C@](C)(C#N)C5)sc4n3)cnc2n1 (single isomer, unassigned) [Compound C91T, trans-3-hydroxy-1-methyl-3-(5-(2-methyl-2H-pyrazolo[3,4-b]pyridin-5-yl)[1,3]thiazolo[5,4-b]pyridin-2-yl)cyclobutanecarbonitrile] | 2.14 | 5.85
34 | Cn1cc2cc(-c3ncc4cc([C@]5(O)C[C@@](C)(C#N)C5)sc4n3)cnc2n1 (single isomer, unassigned) [Compound C96C, cis-3-hydroxy-1-methyl-3-(2-(2-methyl-2H-pyrazolo[3,4-b]pyridin-5-yl)thieno[2,3-d]pyrimidin-6-yl)cyclobutanecarbonitrile] | 0.755 | 2.33
35 | Cn1cc2cc(-c3ncc4cc([C@]5(O)C[C@](C)(C#N)C5)sc4n3)cnc2n1 (single isomer, unassigned) [Compound C96T, trans-3-hydroxy-1-methyl-3-(2-(2-methyl-2H-pyrazolo[3,4-b]pyridin-5-yl)thieno[2,3-d]pyrimidin-6-yl)cyclobutanecarbonitrile] | 0.445 | 1.39
